{"source": "patent US9611270B2", "about": "“Inhibitors of CYP17A1” (University of Kansas, priority 2014, dated 2017)", "key": {"[1]": {"target": "human CYP17A1 (Homo sapiens (Human), UniProt P05093)", "sequence (P05093 20-508)": "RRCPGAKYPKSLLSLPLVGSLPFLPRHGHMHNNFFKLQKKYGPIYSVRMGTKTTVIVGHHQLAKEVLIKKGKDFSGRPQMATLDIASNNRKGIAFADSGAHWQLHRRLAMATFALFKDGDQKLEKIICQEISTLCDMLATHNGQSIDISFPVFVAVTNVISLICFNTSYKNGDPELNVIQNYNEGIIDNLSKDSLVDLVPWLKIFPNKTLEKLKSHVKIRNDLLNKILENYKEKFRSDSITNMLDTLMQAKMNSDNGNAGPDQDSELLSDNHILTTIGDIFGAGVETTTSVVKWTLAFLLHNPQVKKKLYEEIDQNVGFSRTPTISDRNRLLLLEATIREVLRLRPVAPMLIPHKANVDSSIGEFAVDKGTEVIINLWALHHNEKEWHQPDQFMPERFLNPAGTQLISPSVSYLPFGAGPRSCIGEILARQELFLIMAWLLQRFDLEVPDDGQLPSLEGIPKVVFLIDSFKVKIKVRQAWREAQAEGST", "experiment": "Analysis of 17α-hydroxyprogesterone generation by CYP17A1 using HPLC", "description": "Modified constructs of human CYP17A1, human CYP21A2, and human NADPH-cytochrome P450 oxidoreductase (POR) were used. These protein constructs lack a hydrophobic N-terminal transmembrane helix.\nThe additional A19 and H signify an N-terminal deletion of 19 amino acids for solubility (the “A19”) and a C-terminal four-histidine tag for purification (the “H”). Hereafter in the discussion of the assays below, “CYP17A1” will refer to CYP17A1HΔ19 for simplicity.\nThe human POR construct utilized bears an N-terminal truncation of a transmembrane helix (Δ27) to increase expression levels, and a K59Q mutation to prevent proteolysis.\nData from at least two replicates with 8 or more activity points each were averaged and analyzed for standard error.\nThe assays were carried out with 50 pmol of purified CYP17A1 in a 1:4 ratio with POR. The protein stocks were gently mixed together by pipetting and incubated on ice for 20 minutes. This reconstituted protein system was added to buffer (50 mM Tris, pH 7.4 and 5 mM MgCl2) containing progesterone (0-50 μM) for a total volume of 500 μL. For the inhibition studies, 50 μM progesterone was used."}, "[2]": {"target": "human CYP21A2 (Homo sapiens (Human), UniProt P08686)", "sequence (P08686 19-495)": "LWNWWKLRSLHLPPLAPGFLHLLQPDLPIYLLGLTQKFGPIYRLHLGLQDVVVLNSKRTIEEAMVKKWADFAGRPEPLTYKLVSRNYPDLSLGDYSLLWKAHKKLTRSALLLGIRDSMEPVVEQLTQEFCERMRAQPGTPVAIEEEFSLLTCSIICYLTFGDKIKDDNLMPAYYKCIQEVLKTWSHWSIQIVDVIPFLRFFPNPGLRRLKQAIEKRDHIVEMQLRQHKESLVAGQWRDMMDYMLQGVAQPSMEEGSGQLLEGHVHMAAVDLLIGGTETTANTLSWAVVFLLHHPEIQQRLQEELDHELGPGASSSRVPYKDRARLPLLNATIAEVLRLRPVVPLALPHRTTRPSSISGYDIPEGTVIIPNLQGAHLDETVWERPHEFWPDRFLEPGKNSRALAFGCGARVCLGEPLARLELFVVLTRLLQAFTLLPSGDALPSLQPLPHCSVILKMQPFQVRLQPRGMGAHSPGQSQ", "experiment": "Analysis of 21-hydroxyprogesterone generation by CYP21A2 using GC/MS", "assay_type": "biochemical", "from_the_text": "(§1) Two methods for detecting enzymatic activity were utilized. […] University of Kansas, Lawrence, K S, 2011.\n(§2) Toxicol. Appl. […] Mol. Endocrinol. 2007, 21, 1958-1968.\n(§3) The CYP21A2 construct that was used, CYP21A2dH, was also engineered as according to published procedures. See, e.g., Blake, L. C.; Scott, E. E. Cytochromes P450 as therapeutic targets and counter-targets for the prevention of lung cancer and treatment of steroidogenic diseases. University of Kansas, Lawrence, K S, 2012. In this construct, the “d” refers to an 18 amino acid N-terminal deletion. An N-terminal solubility tag was added, in addition to a C-terminal four-histidine tag (“H”). […] “Full-length CYP21A2” will be specifically designated when appropriate.\n(§4) Endocrinology 2011, 152, 2904-2908.\n(§5) GC/MS was performed on an Agilent Technologies 6850 Network GC System equipped with a 6850 series autosampler and an Agilent Technologies 5975C VL MSD with triple axis detector. The electron energy was 70 eV and the ion source temperature was 230° C. Each sample (5 μL) was injected at an injector temperature of 280° C. and separated through an Ultra-1 capillary column (25 m×0.2 mm inner diameter, 0.33-mm film thickness; Agilent Technologies). […] Helium was used as the carrier gas with a column head pressure of 210.3 kPa (column flow: 1.0 mL/min at an oven temperature of 215° C.). For quantitative analysis, the characteristic ions of the monitored steroids were determined as their poly-TMS derivatives. Product and starting material MS counts were normalized for analysis against a known amount of estriol internal standard.\n(§6) Samples were prepared for GC/MS by solid phase extraction (SPE) using SUPELCO Supel™-Select HLB SPE tubes, bed weight 30 mg (Sigma Aldrich). Parallel evaporation was performed using a GeneVac EZ-2 plus evaporator. Poly-trimethylsilyl derivatization was accomplished using a 1000:8:4 (v/w/w) N-methyl-N-(trimethylsilyl) trifluoroacetamide:ammonium iodide:dithioerythritol mixture that had been stirred at room temperature for at least 12 hours (MSTFA).\n(§7) For the inhibition studies, 0.5 μM progesterone was used as the substrate concentration for inhibition studies. […] Reactions were quenched 10 minutes after the addition of NADPH by the same (internal standard-containing) solution, and allowed to stand on ice for 10 minutes.\n(§8) Solid phase extraction (SPE) cartridges (30 mg HLB resin, Sigma-Aldrich) were used on a parallel draining rack. SPEs were pre-equilibrated with 2×1 mL hexanes, 2×1 mL acetone, and 3×1 mL deionized water. Reaction samples (750 μL) were loaded onto individual SPE cartridges, allowed to drain, and then washed with 1 mL water. Glass vials (4 mL capacity) were placed under each tube, and samples were eluted with 4×1 mL acetone. The vials were concentrated for at least 12 hours by parallel evaporation to remove solvent and residual water. MSTFA derivatizing agent (120 μL) was added to each sample vial, which was capped and heated to 60° C. for 60 minutes, stirring by hand intermittently.\n(§9) The amount of 21-hydroxyprogesterone present was determined by GC-MS analysis using single ion monitoring (M/Z 546.35, ca. 26 min retention time), and analyzed against the estriol internal standard peak (M/Z 504.30, ca. 15 min retention time). Progesterone (M/Z 458.30, ca. 16 min retention time) was detected for quality control among reactions and standards. For instance, if a sample registered no product or standard peak as well as no progesterone peak, it was discarded from analysis due to experimental error."}, "[3]": {"system": "human CYP21A2", "experiment": "Analysis of 21-hydroxyprogesterone generation by CYP21A2 using GC/MS", "assay_type": "biochemical", "conditions": "for 17A1/21A2 Sel. Factor: CYP21A2 IC50 divided by CYP17A1 IC50", "from_the_text": "as §1, §2, §3, §4, §5, §6, §7, §8, §9"}, "[4]": {"conditions": "CYP17A1 IC50, progesterone 17α-hydroxylation, 50 μM progesterone, purified CYP17A1 with POR 1:4, ± standard error"}}, "note": "Read-outs that look alike come from different tables or passages of the source.", "data": [{"smiles": "C[C@]12CC[C@H]3[C@@H](C[C@@H]4O[C@@]45C[C@@H](O)CC[C@]35C)[C@@H]1CC=C2c1cccnc1", "values": [{"measurement": "IC50", "setting": "[1]; [4]", "value": "0.428 ± 0.02", "unit": "µM"}]}, {"smiles": "CC(=O)N1CC[C@@H]2[C@H](CC[C@]3(C)C(c4cccnc4)=CC[C@@H]23)[C@@]2(C)CC[C@H](O)C[C@H]12", "values": [{"measurement": "IC50", "setting": "[1]", "value": 1.38, "unit": "µM"}]}, {"smiles": "C[C@]12CC[C@H](O)C[C@@H]1C(=O)C[C@@H]1[C@@H]2CC[C@]2(C)C(c3cccnc3)=CC[C@@H]12", "values": [{"measurement": "IC50", "setting": "[1]", "value": "0.208 ± 0.012", "unit": "µM"}]}, {"smiles": "C[C@]12CC[C@H](O)C[C@@H]1NC(=O)C[C@@H]1[C@@H]2CC[C@]2(C)C(c3cccnc3)=CC[C@@H]12", "values": [{"measurement": "IC50", "setting": "[1]", "value": 5.41, "unit": "µM"}]}, {"smiles": "C[C@]12CC[C@H](O)C[C@@H]1n1nnnc1C[C@@H]1[C@@H]2CC[C@]2(C)C(c3cccnc3)=CC[C@@H]12", "values": [{"measurement": "IC50", "setting": "[1]", "value": "0.199 ± 0.013", "unit": "µM"}]}, {"smiles": "CN[C@H]1C[C@@H]2[C@H](CC[C@]3(C)C(c4cccnc4)=CC[C@@H]23)[C@@]2(C)CC[C@H](O)CC12", "note": "(stereo partly drawn)", "values": [{"measurement": "IC50", "setting": "[1]", "value": 3.97, "unit": "µM"}]}, {"smiles": "C[C@]12CC[C@H](O)C[C@@H]1/C(=N/O)C[C@@H]1[C@@H]2CC[C@]2(C)C(c3cccnc3)=CC[C@@H]12", "note": "[Compound 33, 6-Oxime-17-(3-pyridyl)-androst-16-en-3β-ol]", "values": [{"measurement": "IC50", "setting": "[2]", "value": 10.3, "unit": "µM"}, {"measurement": "IC50", "setting": "[1]", "value": "0.12 to 0.183", "unit": "µM"}, {"measurement": "IC50", "setting": "[1]; [4]", "value": "0.15 ± 0.01", "unit": "µM"}]}, {"smiles": "C[C@]12CC[C@H](O)CC1C(C#N)=C[C@@H]1[C@@H]2CC[C@]2(C)C(c3cccnc3)=CC[C@@H]12", "note": "(stereo partly drawn) [Compound 37, 6-Cyano-17-(3-pyridyl)-androst-6,16-dien-3β-ol]", "values": [{"measurement": "IC50", "setting": "[1]; [4]", "value": "0.244 ± 0.014", "unit": "µM"}]}, {"smiles": "C[C@]12CC[C@H](O)CC1=C(C#N)C[C@@H]1[C@@H]2CC[C@]2(C)C(c3cccnc3)=CC[C@@H]12", "note": "[Compound 38, 6-Cyano-17-(3-pyridyl)-androst-5,16-dien-3β-ol]", "values": [{"measurement": "IC50", "setting": "[1]; [4]", "value": "0.174 ± 0.008", "unit": "µM"}]}, {"smiles": "C[C@]12CC[C@H](O)CC1=C([N+](=O)[O-])C[C@@H]1[C@@H]2CC[C@]2(C)C(c3cccnc3)=CC[C@@H]12", "note": "[Compound 41, 6-Nitro-17-(3-pyridyl)-androst-5,16-dien-3β-ol]", "values": [{"measurement": "IC50", "setting": "[2]", "value": "0.831 ± 0.096", "unit": "µM"}, {"measurement": "17A1/21A2 Sel. Factor", "setting": "[3]", "value": 4.5}, {"measurement": "IC50", "setting": "[1]; [4]", "value": "0.183 ± 0.023", "unit": "µM"}]}, {"smiles": "C[C@]12CC[C@H](O)CC1=C(C(N)=O)C[C@@H]1[C@@H]2CC[C@]2(C)C(c3cccnc3)=CC[C@@H]12", "note": "[Compound 42, 3β-Hydroxy-17-(3-pyridyl)-androst-5,16-dien-6-amide]", "values": [{"measurement": "IC50", "setting": "[2]", "value": 8.7, "unit": "µM"}, {"measurement": "17A1/21A2 Sel. Factor", "setting": "[3]", "value": 72.2}, {"measurement": "CYP17A1/CYP21A2 selectivity relative to abiraterone", "setting": "[3]; times greater than abiraterone", "value": "about 30 times"}, {"measurement": "IC50", "setting": "[1]; [4]", "value": "0.12 ± 0.012", "unit": "µM"}]}, {"smiles": "C[C@]12CC[C@H](O)CC1=CC[C@@H]1[C@@H]2CC[C@]2(C)C(c3cccnc3)=CC[C@@H]12", "note": "[abiraterone, 17-(3-Pyridyl)-androst-5,16-dien-3β-ol, reference compound]", "values": [{"measurement": "17A1/21A2 Sel. Factor", "setting": "[3]", "value": 2.3}, {"measurement": "IC50", "setting": "[1]", "value": 0.13, "unit": "µM"}]}, {"smiles": "C[C@]12CC[C@H](O)CC1=CC[C@@H]1[C@@H]2CC[C@]2(C)C(n3cnc4ccccc43)=CC[C@@H]12", "note": "[galaterone, reference compound]", "values": [{"measurement": "17A1/21A2 Sel. Factor", "setting": "[3]", "value": 0.9}, {"measurement": "IC50", "setting": "[1]; [4]", "value": "0.282 ± 0.016", "unit": "µM"}]}, {"smiles": "CNC(=O)c1ccc2cc([C@@]3(O)CCn4cncc43)ccc2c1", "note": "[orteronel, reference compound]", "values": [{"measurement": "17A1/21A2 Sel. Factor", "setting": "[3]", "value": 1.0}, {"measurement": "CYP17A1 progesterone hydroxylation inhibitory activity (in words)", "setting": "[1]; progesterone 17α-hydroxylation", "value": "significantly less potent"}]}]}
